What was measured:
crabgrass = assay: Test A pre-/postemergence greenhouse test; format: in vivo, Digitaria sanguinalis; settings: for Crabgrass, Large plant response rating: 0 to 100 scale
Procedure, shortened: (§1)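 Pots of loam–sand soil sown with the test species are sprayed preemergence on the soil surface; emerged seedlings (1–2 leaves, 2–10 cm) are sprayed postemergence at the same time. The vehicle is a non-phytotoxic solvent mixture with surfactant. Injury is scored visually after ~10 d in greenhouse.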

morningglory = assay: Test A pre-/postemergence greenhouse test; format: in vivo, Ipomoea spp.; settings: for Morningglory plant response rating: 0 to 100 scale
Procedure, shortened: as §1

redroot pigweed = assay: Test A pre-/postemergence greenhouse test; format: in vivo, Amaranthus retroflexus; settings: for Pigweed plant response rating: 0 to 100 scale
Procedure, shortened: as §1

blackgrass = assay: Test C pre-/postemergence test; format: in vivo, Alopecurus myosuroides
Procedure, shortened: (§2)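 Seeds were planted and treated preemergence with test chemical in a non-phytotoxic solvent mixture containing surfactant. Postemergence applications of the same formulation went onto plants 2 to 18 cm tall (1- to 4-leaf stage). A dash marks no test result.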

green foxtail = assay: Test C pre-/postemergence test; format: in vivo, Setaria viridis
Procedure, shortened: as §2

Italian ryegrass = assay: Test C pre-/postemergence test; format: in vivo, Lolium multiflorum
Procedure, shortened: as §2

wheat = assay: Test C pre-/postemergence test; format: in vivo, Triticum aestivum; settings: for Wheat plant response rating: preemergence, scale 0 (no effect) to 100 (complete control)
Procedure, shortened: as §2

wild oat = assay: Test C pre-/postemergence test; format: in vivo, Avena fatua
Procedure, shortened: as §2

corn = assay: Test C pre-/postemergence test; format: in vivo, Zea mays
Procedure, shortened: as §2

woolly cupgrass = assay: Test C pre-/postemergence test; format: in vivo, Eriochloa villosa
Procedure, shortened: as §2

Goosegrass = assay: Test C pre-/postemergence test; format: in vivo, Eleusin indica
Procedure, shortened: as §2

eastern black nightshade = assay: Test C pre-/postemergence test; format: in vivo, Solanum ptycanthum
Source text: Seeds of plant species selected from blackgrass (Alopecurus myosuroides), downy brome (Bromus tectorum), green foxtail (Setaria viridis), Italian ryegrass (Lolium multiflorum), wheat (Triticum aestivum), wild oat (Avena fatua), catchweed bedstraw (Galium aparine), Russian thistle (Salsola kali), […] (Cynodon dactylon), Surinam grass (Brachiaria decumbens), cocklebur (Xanthium strumarium), corn (Zea mays), crabgrass (Digitaria sanguinalis), woolly cupgrass (Eriochloa villosa), giant foxtail (Setaria faberii), Goosegrass (Eleusin indica), johnsongrass (Sorghum halepense), kochia (Kochia scoparia), lambsquarters (Chenopodium album), morningglory (Ipomoea coccinea), eastern black nightshade (Solanum ptycanthum), yellow nutsedge (Cyperus esculentus), pigweed (Amaranthus retroflexus), common ragweed (Ambrosia elation), soybean (Glycine max), common (oilseed) sunflower (Helianthus annuus), and velvetleaf (Abutilon theophrasti) were planted and treated preemergence with test chemicals formulated in a non-phytotoxic solvent mixture which included a surfactant. At the same time, plants selected from these crop and weed species and also winter barley (Hordeum vulgare), canarygrass (Phalaris minor), and chickweed (Stellaria media) were treated with postemergence applications of some of the test chemicals formulated in the same manner. Plants ranged in height from 2 to 18 cm (1- to 4-leaf stage) for postemergence treatments. […] At time of treatment, test pots were flooded to 3 cm above the soil surface, treated by application of test compounds directly to the paddy water, and then maintained at that water depth for the duration of the test. […] A dash (-) response means no test result.

yellow nutsedge = assay: Test C pre-/postemergence test; format: in vivo, Cyperus esculentus
Procedure, shortened: as §2

common ragweed = assay: Test C pre-/postemergence test; format: in vivo, Ambrosia elation
Procedure, shortened: as §2

[1] = tested on: common (oilseed) sunflower; assay: Test C pre-/postemergence test; format: in vivo, Helianthus annuus; settings: for Sunflower plant response rating: preemergence, scale 0 (no effect) to 100 (complete control)
Procedure, shortened: as §2

[2] = Postemergence, 125 g ai/ha, 0 is no effect, 100 is complete control
[3] = Postemergence, 500 g ai/ha, 0 is no effect, 100 is complete control
[4] = Preemergence, 125 g ai/ha, 0 no effect, 100 complete control
[5] = Preemergence, 500 g ai/ha, 0 to 100 scale where 0 is no effect and 100 is complete control
[6] = 31 g ai/ha, Preemergence, scale 0 to 100
[7] = 62 g ai/ha, preemergence, scale 0 (no effect) to 100 (complete control)
[8] = preemergence, 125 g ai/ha, scale 0 (no effect) to 100 (complete control)

Cn1nc(C(F)(F)F)c(CS(=O)(=O)c2cccc[n+]2[O-])c1OC(F)F [Compound 4]
65: Oat, Wild plant response rating (wild oat; [8])
85: Nutsedge, Yellow plant response rating (yellow nutsedge; [6])
50: Plant response rating (0 to 100), Wheat (wheat; Preemergence, 250 g ai/ha) | Oat, Wild plant response rating (wild oat; [7]) | Corn plant response rating (corn; [7])
20: Wheat plant response rating (wheat; 62 g ai/ha) | Wheat plant response rating (wheat; 125 g ai/ha)
90: Plant response rating, Morningglory (morningglory; [5]) | Nightshade plant response rating (eastern black nightshade; [6])
95: Blackgrass plant response rating (blackgrass; [8])
100: Crabgrass, Large plant response rating (crabgrass; [4]) | Plant response rating, Crabgrass, Large (crabgrass; [5]) | Pigweed plant response rating (redroot pigweed; [4]) | Plant response rating, Pigweed (redroot pigweed; [5]) | Plant response rating (0 to 100), Blackgrass (blackgrass; Preemergence, 250 g ai/ha) | Foxtail, Green plant response rating (green foxtail; [6]) | Foxtail, Green plant response rating (green foxtail; [7]) | Plant response rating (0 to 100), Foxtail, Green (green foxtail; Preemergence, 250 g ai/ha) | Foxtail, Green plant response rating (green foxtail; [8]) | Plant response rating (0 to 100), Ryegrass, Italian (Italian ryegrass; Preemergence, 250 g ai/ha) | Ryegrass, Italian plant response rating (Italian ryegrass; [8]) | Plant response rating (0 to 100), Cupgrass, Woolly (woolly cupgrass; Preemergence, 250 g ai/ha) | Goosegrass plant response rating (Goosegrass; [6]) | Goosegrass plant response rating (Goosegrass; [7]) | Plant response rating (0 to 100), Goosegrass (Goosegrass; Preemergence, 250 g ai/ha) | Goosegrass plant response rating (Goosegrass; [8]) | Nightshade plant response rating (eastern black nightshade; [7]) | Plant response rating (0 to 100), Nightshade (eastern black nightshade; Preemergence, 250 g ai/ha) | Nightshade plant response rating (eastern black nightshade; [8]) | Nutsedge, Yellow plant response rating (yellow nutsedge; [7]) | Plant response rating (0 to 100), Nutsedge, Yellow (yellow nutsedge; Preemergence, 250 g ai/ha) | Nutsedge, Yellow plant response rating (yellow nutsedge; [8]) | Ragweed plant response rating (common ragweed; [7]) | Plant response rating (0 to 100), Ragweed (common ragweed; Preemergence, 250 g ai/ha) | Ragweed plant response rating (common ragweed; [8])
60: Morningglory plant response rating (morningglory; [2]) | Ryegrass, Italian plant response rating (Italian ryegrass; [7]) | Cupgrass, Woolly plant response rating (woolly cupgrass; [6])
0: Ryegrass, Italian plant response rating (Italian ryegrass; [6]) | Corn plant response rating (corn; [6])
55: Corn plant response rating (corn; [8])
10: Oat, Wild plant response rating (wild oat; [6]) | Sunflower plant response rating ([1]; 62 g ai/ha)
70: Morningglory plant response rating (morningglory; [3]) | Pigweed plant response rating (redroot pigweed; [2]) | Blackgrass plant response rating (blackgrass; [6]) | Plant response rating (0 to 100), Oat, Wild (wild oat; Preemergence, 250 g ai/ha) | Plant response rating (0 to 100), Corn (corn; Preemergence, 250 g ai/ha) | Ragweed plant response rating (common ragweed; [6])
98: Cupgrass, Woolly plant response rating (woolly cupgrass; [7]) | Cupgrass, Woolly plant response rating (woolly cupgrass; [8])
15: Sunflower plant response rating ([1]; 125 g ai/ha)
80: Crabgrass, Large plant response rating (crabgrass; [2]) | Crabgrass, Large plant response rating (crabgrass; [3]) | Morningglory plant response rating (morningglory; [4]) | Pigweed plant response rating (redroot pigweed; [3]) | Blackgrass plant response rating (blackgrass; [7]) | Plant response rating (0 to 100), Sunflower ([1]; Preemergence, 250 g ai/ha)

From patent publication US20100298141A1, “SUBSTITUTED PYRIDINE N-OXIDE HERBICIDES” (E. I. DU PONT DE NEMOURS AND COMPANY, priority 2007, published 2010)
